Assay results: PMC8230704 (Journal of the American Chemical Society, 2021)
Where two headings read alike, the source gives them in different places.

Experiments:
NDM-1 [1] = details: substrate of NDM-1; cited from earlier work
[2] = read-out: Kd,Zn(II); cited from earlier work
NDM-1 [3] = target: T1, NDM-1 (Klebsiella pneumoniae, UniProt C7C422); assay: Challenge of fluorescent 4D:NDM-1 complex with inhibitors and chelators; type: binding
NDM-1 [4] = target: T1, NDM-1; details: read-out: IC50 for purified NDM-1; cited from earlier work
[5] = target: Δ35 NDM-1 expressing BL21 (DE3) E. coli (Klebsiella pneumoniae, UniProt C7C422); assay: cell-based
NDM-1 [6] = target: T1, NDM-1; assay: NDM-1 inhibition with chromacef substrate; type: biochemical
NDM-15 Δ35 BL21 cells = NDM-15 Δ35 BL21 cells (Klebsiella pneumoniae, UniProt C7C422, A233V/M154L); assay: Confocal fluorescence imaging of 4D-treated live E. coli expressing Δ35 NDM-15; type: cell-based; details: DPA up to 200 μM

chromacef
Km (NDM-1 [1]): 0.66 ± 0.2 µM

O=C([O-])CN(CCN(CC(=O)O)CC(=O)O)CC(=O)[O-].[Ca+2] [CaEDTA, calcium EDTA]
Kd [2]: 0.001 µM

c1ccc(CN(CCN(Cc2ccccn2)Cc2ccccn2)Cc2ccccn2)nc1 [TPEN, N,N,N′,N′-tetrakis(2-pyridinyl-methyl)-1,2-ethanediamine]
fluorescence after pre-incubation of NDM-1 with TPEN (NDM-1 [3]; 10 μM NDM-1 and 10 μM 4D, recovered upon excess ZnSO4): complete reduction of fluorescence
fluorescence turn-on after pre-incubation of NDM-1 with TPEN (NDM-1 [3]; 30 μM NDM-1 pre-incubated with TPEN, then 10 μM 4D): ~ 4 fold
fluorescence turn-on of 4D:NDM-1 after treatment (NDM-1 [3]; TPEN 50 μM, 10 μM ZnSO4, from 12-fold): 9.2 fold

CC1=C(C(=O)O)N2C(=O)[C@@H](NC(=O)[C@H](N)c3ccccc3)[C@H]2SC1 [cephalexin]
Km (NDM-1 [1]): 5.6 µM

O=C(O)c1cccc(C(=O)O)n1 [DPA, dipicolinic acid]
IC50 (NDM-1 [4]): 0.5 µM
IC50 [5]: ~200 µM
IC50 (NDM-1 [6]): 154 µM
effect on fluorescence (NDM-15 Δ35 BL21 cells): no effect on fluorescence
fluorescence turn-on of 4D:NDM-1 after treatment (NDM-1 [3]; DPA 150 μM, 50 μM ZnSO4, from 17-fold maximum): 13 fold
